In US6004957A, “Sulfonamide inhibitors of aspartyl protease” (Vertex Pharmaceuticals, Incorporated, priority 1998, dated 1999):
Each block holds one molecule with its values, some of them ahead of it.

System: HIVIIIb in CCRM-CEM cells
Assay: Anti-viral potency in CCRM-CEM cells acutely infected with HIVIIIb (method of Meek et al.), extracellular p24 antigen
Type: cell-based, HIV-1
Conditions: Human immunodeficiency virus 1, HIV replication, Table VIII, read-out: IC90 Range
From the text: As discussed above, the novel compounds of the present invention are excellent ligands for aspartyl proteases, particularly HIV-1 and HIV-2 proteases. Accordingly, these compounds are capable of targeting and inhibiting late stage events in HIV replication, i.e., the processing of the viral polyproteins by HIV encoded proteases. […] Because aspartyl protease is essential for the production of mature virions, inhibition of that processing effectively blocks the spread of virus by inhibiting the production of infectious virions, particularly from chronically infected cells. […] Other anti-viral assays have confirmed the potency of these compounds.
Compounds of formula I were tested for their antiviral potency in several virological assays. In the first assay, the compounds were added as a solution in dimethylsulfoxide (DMSO) to a test cell culture of CCRM-CEM cells, a strain of CD4^+ human T-cell lymphoma cells, previously acutely infected with HIVIIIb using standard protocols (see Meek, T. D. et al., "Inhibition of HIV-1 protease in infected T-lymphocytes by synthetic peptide analogues", Nature, 343, p. 90 (1990). Preferred compounds are those which are able to inhibit 90% of viral infectivity at a concentration of 1 μM or less. More preferred compounds are those which are able to inhibit 90% of viral infectivity at a concentration of 100 nM or less.
The effect of the compounds on inhibiting the replication of the virus was measured by determining the HIV extracellular p24 antigen concentration using a commercial enzyme immunoassay (obtained from Coulter Corporation, Hialeah, Fla.).

SMILES: CC(C)CN(C[C@@H](O)[C@H](Cc1ccccc1)NC(=O)OC(C)(C)C)S(=O)(=O)c1ccc2nonc2c1 [Compound 64]
IC90: 1000 to 10000 nM

SMILES: CC(C)CN(C[C@@H](O)[C@H](Cc1ccccc1)NC(=O)OCc1ccccc1)S(=O)(=O)c1ccc2nonc2c1 [Compound 65]
IC90: 1000 to 10000 nM

SMILES: CC(C)CN(C[C@@H](O)[C@H](Cc1ccccc1)NC(=O)O[C@H]1CCOC1)S(=O)(=O)c1ccc2nonc2c1 [Compound 66]
IC90: 101 to 1000 nM

SMILES: C=CCOC(=O)N[C@@H](Cc1ccccc1)[C@H](O)CN(CC(C)C)S(=O)(=O)c1ccc(Cl)c(Cl)c1 [Compound 81]
IC90: 1000 to 10000 nM

SMILES: CC(C)CN(C[C@@H](O)[C@H](Cc1ccccc1)NC(=O)OCc1cccnc1)S(=O)(=O)c1ccc2nonc2c1 [Compound 82]
IC90: 1000 to 10000 nM

SMILES: CC(C)(C)OC(=O)N[C@@H](Cc1ccccc1)[C@H](O)CN(CC1CCCC1)S(=O)(=O)c1ccc(Cl)c(Cl)c1 [Compound 84]
IC90: 1000 to 10000 nM

IC90: 1000 to 10000 nM
SMILES: CC(C)CN(C[C@@H](O)[C@H](Cc1ccccc1)NC(=O)OCC1CCOC1)S(=O)(=O)c1ccc(Cl)c(Cl)c1 (some centres unmarked) [Compound 85]

IC90: 101 to 1000 nM
SMILES: CC(=O)Nc1ccc(S(=O)(=O)N(CC(C)C)C[C@@H](O)[C@H](Cc2ccccc2)NC(=O)OC2CCOC2)cc1 (stereo partly drawn) [Compound 86, N-(4-(((2 syn,3S)-2-Hydroxy-4-phenyl-3-((R)-tetrahydrofuran-3-yloxycarbonylamino)-butyl)-isobutyl-sulfamoyl-phenyl)-acetamide and N-(4-(((2 syn,3S)-2-Hydroxy-4-phenyl-3-((S)-tetrahydrofuran-3-yloxycarbonylamino)-butyl)-isobutyl-sulfamoyl)-phenyl)-acetamide]

SMILES: CC(=O)Nc1cc(S(=O)(=O)N(CC(C)C)C[C@@H](O)[C@H](Cc2ccccc2)NC(=O)O[C@H]2CCOC2)ccc1F [Compound 88, N-(2-Fluoro-5-(((2 syn,3S)-2-hydroxy-4-phenyl-3-((S)-tetrahydrofuran-3-yloxycarbonylamino)-butyl)-isobutyl-sulfamoyl)-phenyl)-acetamide]
IC90: 101 to 1000 nM

SMILES: CCCOC(=O)N[C@@H](Cc1ccccc1)[C@H](O)CN(CC(C)C)S(=O)(=O)c1ccc(Cl)c(Cl)c1 [Compound 89]
IC90: 1000 to 10000 nM

SMILES: CC(=O)Nc1cccc(S(=O)(=O)N(CC(C)C)C[C@@H](O)[C@H](Cc2ccccc2)NC(=O)O[C@H]2CCOC2)c1 [Compound 91, N-(3-(((2 syn,3S)-2-Hydroxy-4-phenyl-3-((S)-tetrahydrofuran-3-yloxycarbonylamino)-butyl)-isobutyl-sulfamoyl)-phenyl)-acetamide]
IC90: 101 to 1000 nM

SMILES: CC(C)CN(C[C@@H](O)[C@H](Cc1ccccc1)NC(=O)O[C@@H]1CCOC1)S(=O)(=O)c1ccc(F)cc1 [Compound 93, 4-Fluoro-N-((2 syn,3S)-2-hydroxy-4-phenyl-3-((R)-tetrahydrofuran-3-yloxycarbonylamino)-butyl)-N-isobutyl-benzenesulfonamide]
IC90: 101 to 1000 nM

SMILES: CC(=O)Nc1ccc(S(=O)(=O)N(CC(C)C)C[C@@H](O)[C@H](Cc2ccccc2)NC(=O)O[C@@H]2CCOC2)cc1 [Compound 94, N-(4-(((syn)-2-Hydroxy-(S)-4-phenyl-3-((tetrahydro-furan-(R)-3-yl)-oxycarbonylamino)-butyl)-isobutyl-sulfamoyl)-phenyl)-acetamide]
IC90: 101 to 1000 nM

SMILES: CC(C)CN(C[C@@H](O)[C@H](Cc1ccccc1)NC(=O)O[C@H]1CCOC1)S(=O)(=O)c1cc(Cl)c(Cl)s1 [Compound 95]
IC90: 1000 to 10000 nM

SMILES: CC(C)CN(C[C@@H](O)[C@H](Cc1ccccc1)NC(=O)OCc1cccnc1)S(=O)(=O)c1ccc(F)cc1 [Compound 98, 4-Fluoro-N-((2 syn,3S)-2-hydroxy-4-phenyl-3-(pyridin-3-yl-methoxycarbonylamino)-butyl)-N-isobutyl-benzenesulfonamide]
IC90: 101 to 1000 nM

SMILES: CC(C)CN(C[C@@H](O)[C@H](Cc1ccccc1)NC(=O)O[C@H]1CCOC1)S(=O)(=O)c1ccc(Cl)cc1 [Compound 99, 4-Chloro-N-((2 syn,3S)-2-hydroxy-4-phenyl-3-((S)-tetrahydrofuran-3-yloxycarbonylamino)-butyl)-isobutyl-benzenesulfonamide]
IC90: 101 to 1000 nM

SMILES: COc1ccc(S(=O)(=O)N(CC(C)C)C[C@@H](O)[C@H](Cc2ccccc2)NC(=O)O[C@H]2CCOC2)cc1 [Compound 100, N-((2 syn,3S)-2-Hydroxy-4-phenyl-3-((S)-tetrahydrofuran-3-yloxycarbonylamino)-butyl)-N-isobutyl-4-methoxy-benzenesulfonamide]
IC90: < 100 nM

SMILES: COC(=O)N[C@@H](Cc1ccccc1)[C@H](O)CN(CC(C)C)S(=O)(=O)c1ccc(Cl)c(Cl)c1 [Compound 103]
IC90: 1000 to 10000 nM

SMILES: COC(=O)N[C@@H](Cc1ccccc1)[C@H](O)CN(CC(C)C)S(=O)(=O)c1ccc(F)cc1 [Compound 104]
IC90: 1000 to 10000 nM

SMILES: C=C(C)COC(=O)N[C@@H](Cc1ccccc1)[C@H](O)CN(CC(C)C)S(=O)(=O)c1ccc(Cl)c(Cl)c1 [Compound 106]
IC90: 1000 to 10000 nM

SMILES: C=C(C)COC(=O)N[C@@H](Cc1ccccc1)[C@H](O)CN(CC(C)C)S(=O)(=O)c1ccc(F)cc1 [Compound 107]
IC90: 1000 to 10000 nM

SMILES: CC(C)CN(C[C@@H](O)[C@H](Cc1ccccc1)NC(=O)OC[C@@H]1COC(=O)N1)S(=O)(=O)c1ccc(F)cc1 [Compound 109, 4-Fluoro-N-(2-(syn)-hydroxy-3-((2-oxazolidon-(S)-4-yl)-methoxycarbonylamino)-4-(S)-phenyl-butyl)-N-isobutyl-benzenesulfonamide]
IC90: 101 to 1000 nM

SMILES: O=C(N[C@@H](Cc1ccccc1)[C@H](O)CN(CC1CCCC1)S(=O)(=O)c1ccc(F)cc1)OCc1cccnc1 [Compound 111]
IC90: 1000 to 10000 nM

SMILES: CC(C)CN(C[C@@H](O)[C@H](Cc1ccccc1)NC(=O)O[C@H]1CCOC1)S(=O)(=O)c1cccc(S(N)(=O)=O)c1 [Compound 112, Benzene-1,3-disulfonic acid 1-amide 3-((2 syn,3S)-2-hydroxy-4-phenyl-3-(3-(S)-tetrahydrofuran-3-yloxycarbonylamino)-butyl)-isobutyl-amide]
IC90: 101 to 1000 nM

SMILES: CC(C)CN(C[C@@H](O)[C@H](Cc1ccccc1)NC(=O)O[C@H]1CCOC1)S(=O)(=O)c1ccoc1 [Compound 113]
IC90: 101 to 1000 nM

SMILES: C=CCOC(=O)N[C@@H](Cc1ccccc1)[C@H](O)CN(CC1CCCC1)S(=O)(=O)c1ccc(F)cc1 [Compound 114, N-((3-Allyloxycarbonylamino)-(2 syn,3S)-2-hydroxy-4-phenyl-butyl)-N-cyclopentylmethyl-4-fluoro-benzenesulfonamide]
IC90: 101 to 1000 nM

SMILES: CCOC(=O)N[C@@H](Cc1ccccc1)[C@H](O)CN(CC1CCCC1)S(=O)(=O)c1ccc(F)cc1 [Compound 115, N-Cyclopentylmethyl-N-((3-ethoxycarbonylamino)-(2 syn,3S)-2-hydroxy-4-phenyl-butyl)-4-fluoro-benzenesulfonamide]
IC90: 101 to 1000 nM

SMILES: O=C(N[C@@H](Cc1ccccc1)[C@H](O)CN(CC1CCCC1)S(=O)(=O)c1ccc(Cl)cc1)O[C@H]1CCOC1 [Compound 116, 4-Chloro-N-cyclopentylmethyl-N-((2 syn,3S)-2-hydroxy-4-phenyl-3-((S)-tetrahydrofuran-3-yloxycarbonylamino)-butyl)-benzenesulfonamide]
IC90: < 100 nM

SMILES: C=CCOC(=O)N[C@@H](Cc1ccccc1)[C@H](O)CN(CC1CCCC1)S(=O)(=O)c1ccc(Cl)cc1 [Compound 117]
IC90: 1000 to 10000 nM

SMILES: O=C(N[C@@H](Cc1ccccc1)[C@H](O)CN(CC1CCCC1)S(=O)(=O)c1ccc(Cl)cc1)OCc1cccnc1 [Compound 118]
IC90: 101 to 1000 nM

SMILES: CCOC(=O)N[C@@H](Cc1ccccc1)[C@H](O)CN(CC(C)C)S(=O)(=O)c1ccc(Cl)c(Cl)c1 [Compound 119]
IC90: 1000 to 10000 nM

SMILES: CCOC(=O)N[C@@H](Cc1ccccc1)[C@H](O)CN(CC(C)C)S(=O)(=O)c1ccc(F)cc1 [Compound 121]
IC90: 1000 to 10000 nM

SMILES: C=CCOC(=O)N[C@@H](Cc1ccccc1)[C@H](O)CN(CC(C)C)S(=O)(=O)c1ccc(F)cc1 [Compound 122]
IC90: 1000 to 10000 nM

SMILES: CC(C)CN(C[C@@H](O)[C@H](Cc1ccccc1)NC(=O)O[C@H]1CCOC1)S(=O)(=O)c1ccc(F)c(F)c1 [Compound 124]
IC90: 10000 to 40000 nM

SMILES: CC(=O)Nc1ccc(S(=O)(=O)N(CC2CCCC2)C[C@@H](O)[C@H](Cc2ccccc2)NC(=O)O[C@H]2CCOC2)cc1 [Compound 125, N-(4-(Cyclopentylmethyl-((2 syn,3S)-2-hydroxy-4-phenyl-3-((S)-tetrahydrofuran-3-yloxycarbonylamino)-butyl)-sulfamoyl)-phenyl)-acetamide]
IC90: 101 to 1000 nM

SMILES: C=C(C)CN(C[C@@H](O)[C@H](Cc1ccccc1)NC(=O)O[C@H]1CCOC1)S(=O)(=O)c1ccc(F)cc1 [Compound 135]
IC90: 1000 to 10000 nM

SMILES: CC(C)CN(C[C@@H](O)[C@H](Cc1ccccc1)NC(=O)O[C@H]1CCOC1)S(=O)(=O)c1cccc(Cl)c1 [Compound 138, 3-Chloro-N-((2 syn,3S)-2-hydroxy-4-phenyl-3-((S)-tetrahydrofuran-3-yloxycarbonylamino)-butyl)-N-isobutyl-benzenesulfonamide]
IC90: 101 to 1000 nM

SMILES: O=C1N[C@H](COC(=O)N[C@@H](Cc2ccccc2)[C@H](O)CN(CC2CCCC2)S(=O)(=O)c2ccc(Cl)cc2)CO1 [Compound 139, 4Chloro-N-cyclopentylmethyl-N-(2-(syn)-hydroxy-3-((2-oxazolidon-4-(S)-yl-methyl)-oxycarbonylamino)-4-phenyl-butyl)-benzenesulfonamide]
IC90: 101 to 1000 nM
